Measurements as given in PMC5427923, “A novel CCR2 antagonist inhibits atherogenesis in apoE deficient mice by achieving high receptor occupancy” (Scientific Reports, 2017).

How the values were obtained:
[1] = tested on: leucocyte migration towards the peritoneal cavity; test: Pilot study: leucocyte migration towards the peritoneal cavity; assay type: in vivo, mouse; details: data not shown
Description: (§1) To measure plasma concentrations of 15a over time, Western type diet fed mice were injected with 5 mg/kg 15a, after which blood samples were taken at fixed time points (1, 2, 6 and 24 hours after injection). Blood samples were processed as described below under “Measurement of 15a plasma levels”. The final dose of 5 mg/kg/day was based on a pilot study in which two different doses (1.5 and 5 mg/kg/day) were tested using leucocyte migration towards the peritoneal cavity as a read-out. […] In addition, the dose of 5 mg/kg was also based on a previous study with TAK-779[38], in which a dose of 5 mg/kg was used.

hCCR2b = details: cited from earlier work
[2] = 15a plasma levels by LC-MS after a single intraperitoneal dose; assay type: in vivo; details: apoE−/−, mouse
Description: as §1
Blood plasma from mice was analyzed by LC-MS to determine 15a plasma levels. 20 μL of internal standard (compound 15b, a diastereomer of 15a[24]) and 20 μL of solvent C (20% (v/v) Acetonitrile and 0.1% (v/v) TFA in LC-MS water) were first mixed with 20 µL of plasma. A calibration curve from 2 to 200 ng/ml of 15a was prepared using solvent C. Calibration samples were prepared as normal samples using blanc plasma and calibration solution instead of solvent C. Aliquots of 40 µL of 1% TFA were added to the samples and mixed well. After addition of 900 µL of ethyl acetate, mixing was performed for 5 minutes at a titramax plate shaker (Heidolph, Swabach, Germany). Samples were then centrifuged at 15,000 × g during 10 minutes and 800 µL of the supernatant was evaporated in a vacuum centrifuge (Labconco, Kansas City, Missouri). The sample was reconstituted by mixing with 10 µL of acetonitrile, followed by addition of 40 µL solvent C. After a second centrifugation at 15,000 × g for 10 minutes, 35 µL of supernatant were transferred to LC vials and inserted into the LC-MS system consisting of a Nexera X2 UHPLC system with two UHPLC pumps (Shimadzu, ’s Hertogenbosch, The Netherlands) connected to a TSQ Quantum Ultra (Thermo Fisher Scientific, Breda, The Netherlands). Separation of 15a was accomplished in a Gemini 3 µm C18 reversed phase HPLC column (50 × 4.6 mm) (Phenomenex, Amstelveen, The Netherlands) using an injection volume of 10 µL and a flow rate of 0.6 ml/min at 40 °C. After elution of 15a with a 9:11 (v/v) ratio of acetonitrile in water with 0.1% TFA, the column was flushed with a gradient up to 90% acetonitrile with 0.1% TFA. The column was re-equilibrated with a 9:11 (v/v) ratio of acetonitrile in water with 0.1% TFA before the next injection. […] The collision energy used was 26 V at a skimmer offset of 16 V, the scan peak width was 0.5 m/z, while the scan time was 0.3 seconds. Sheath gas and auxiliary gas pressure (Nitrogen) were set to 60 and 5 respectively (arbitrary units), and the collision gas Argon was set at 1.0 atm.
To determine the maximal value of k off that would prolong the receptor occupancy even further, we used equation (2)[28], in which BF represents the percentage of target occupancy divided by 100 and t 1/2el represents the plasma elimination half-life (0.693/k el). In this case we set BF to 0.90, as 90% represents the minimum value of target occupancy to achieve efficacy. To obtain the elimination rate constant of compound 15a, a linear regression analysis of the natural logarithm of the concentrations versus time was performed, and the slope coefficient was used as the elimination rate constant k el.2 koff<0.693⋅(1−BF)/t1/2el

**Q.** What does the source list for CC(C)[C@]1(C(=O)N2CCc3ccc(C(F)(F)F)cc3C2)CC[C@@H](N[C@@H]2CCc3cc(Br)ccc32)C1 [15a, ((1S,3R)-3-(((R)-5-bromo-2,3-dihydro-1H-inden-1-yl)amino)-1-isopropylcyclopentyl)(7-(trifluoromethyl)-3,4-dihydroisoquinolin-2(1H)-yl)methanone]?
**A.** effective in inhibiting leucocyte migration ([1]; 1.5 mg/kg per day): not effective; effective in inhibiting leucocyte migration ([1]; 5 mg/kg per day): was; RT (hCCR2b; hCCR2, ref Vilums et al. [24]): 714 min; lifetime (RT) on hCCR2 (hCCR2b; hCCR2, ref [24]): more than 10 hours; Ki (hCCR2b; hCCR2, ref [24], read-out: affinity for human CCR2): 2.4 nM; KRI (hCCR2b; hCCR2b, ref Vilums et al. [24]): 1.7; Kd (hCCR2b; hCCR2b, ref Vilums et al. [24]): 0.175 nM; koff (hCCR2b; hCCR2b, ref Vilums et al. [24]): 2.33e-05 s⁻¹; kon (hCCR2b; hCCR2b, ref Vilums et al. [24]): 130000 M⁻¹ s⁻¹; k el ([2]; intraperitoneal, 5 mg/kg, slope of the linear regression of the pharmacokinetic data, read-out: k el (elimination rate constant) (converted)): 1.8e-05 s⁻¹; concentration at 1 h ([2]; ip, single intraperitoneal dose of 5 mg/kg, mice, range of individual mice, read-out: plasma levels 1 h after administration): 12 to 1460 ng/mL; concentration at 2 h ([2]; ip, single intraperitoneal dose of 5 mg/kg, mice, range of individual mice, read-out: plasma levels 2 h after dosing): 613 to 1050 ng/mL; concentration at 6 h ([2]; ip, single intraperitoneal dose of 5 mg/kg, mice, range of individual mice, read-out: plasma levels 6 h after administration): 182 to 1020 ng/mL; concentration at 24 h ([2]; ip, single intraperitoneal dose of 5 mg/kg, mice, range of individual mice, read-out: plasma levels 24 h after administration): 32 to 331 ng/mL; half-life ([2]; ip, single intraperitoneal dose of 5 mg/kg, mice, read-out: elimination half-life (converted)): 10.7 h
